This is an account of results in patent US12297293B2, “Peptide compounds targeting PD-1 receptor as well as preparation and applications thereof” (NANTONG UNIVERSITY, priority 2021, dated 2025).

Ends that are not written are not given here.

Assay [1] deals with formalin-induced inflammatory pain. Kind of assay: Formalin-induced inflammatory pain test. It is filed as in vivo, ICR male mice. The protocol:
According to the present invention, placing ICR male mice in a weight range of 25-30 g in an observation room for 15 min, and injecting intrathecally with different doses of the compound 4 (5 nmol, 10 nmol, 30 nmol) or saline; after 5 min, injecting subcutaneously with 5% formalin (20 μl) through the plantar surface of the foot, and then immediately sending to the observation room; counting an accumulated time of pain behaviors (licking, biting, and flinging the injected foot) during the time period of 0-10 min and 10-45 min, respectively.
0-10 min after formalin injection is a phase I, which is mainly triggered by direct activation of injurious neurons; and 10-35 min is phase II, which is mainly triggered by formalin-induced inflammatory response.

The test system of a further assay is DRG neurons. In words: DRG neuronal calcium imaging experiment. It is filed as cell-based, ICR mice. The conditions noted are these: DRG neurons pretreated with 1 nM; high K+ solution; Fluo-4/AM, laser confocal. The source says: The inhibitory effect of compounds 1-5 on pain signaling was characterized by DRG neuronal calcium imaging, comprising the following steps:
performing acute isolation on 3-week-old female ICR mice, and extracting DRG in a sterile bench; lysing sequentially by collagenase A and trypsin; terminating trypsin lysis with a complete medium containing serum; centrifuging at 800r, discarding supernatant, and adding Neurobasal medium (containing 2% B27, Clutanine 1%, and 1% penicillin-streptomycin double antibody solution) and thoroughly mixing; then culturing in pre-prepared Petri dishes lined with PDL for 48 h; labeling DRG neurons with Flou-4/AM prior to the experiment, and pre-treating with different doses of the compounds 1-5/equivalent volume of HBSS before stimulating the DRG neurons with high K+ solution; and then detecting changes of intracellular free calcium ion concentration of DRG neurons under laser confocal.

Assay [2] relates to acetic acid-induced visceral pain. Kind of assay: Acetic acid-induced visceral pain (writhing) test. It is filed as in vivo, ICR male mice. The protocol: According to the present invention, placing ICR male mice in a weight range of 25-30 g in an observation room for 15 min, and injecting intrathecally with different doses of the compound 4 (5 nmol, 10 nmol, 30 nmol) or saline; after 5 min, injecting intraperitoneally with 0.6% glacial acetic acid solution (10 mL/kg), and then sending to the observation room; counting the number of body writhing within 20 min.
The experimental results are shown in FIG. 4, the number of writhing in mice decreased with the increase of the administered dose. […] Intrathecally injected at a dose of 30 nmol, the compound 4 inhibited the writhing behavior of mice by 63%.

For SYGGADYKR [compound 4], the “pain behavior (licking, biting and flinging the injected foot) in both phases” value in assay [1] (intrathecal 5, 10, 30 nmol, 5% formalin 20 μl plantar, phase I and phase II, vs control group) is listed as “significantly shortened”. Also, in assay [1] (intrathecal injection, formalin phase II), the “ED50 (median effective dose) for pain in phase II” value is 6.28 (5.34-7.39) nmol. The “inhibitory effect on the increase of intracellular Ca2+ concentration induced by high K+” value in the assay on DRG neurons is “significant inhibitory effect”. In addition, the “number of abdominal writhing” value in assay [2] (intrathecal 5, 10, 30 nmol, 0.6% acetic acid i.p. 10 mL/kg, writhing within 20 min) is listed as “significantly reduce the number of abdominal writhing in mice in a dose-dependent manner”. Also, in assay [2] (intrathecal dose of 30 nmol), the “inhibition of writhing behavior” value worked out at 63%. Further, the ED50 in assay [2] (intrathecal injection, acetic acid writhing) is 13.5 (11.88-15.34) nmol.
